Results taken from US7041307B2, “Biocide-polyester concentrates and biocidal compositions prepared therefrom” (Ciba Specialty Chemicals Corporation, priority 1999, dated 2006).

Experiment: Yellowness index (ASTM D1925) of polypropylene plaques after multiple pass extrusion, biocide as neat powder or polyester concentrate (Example 2)
Assay type: physicochemical
Conditions: polypropylene plaque
Excerpt: Polypropylene homopolymer (PRO-FAX® 6501, Montell Polyolefins, 100 parts), stabilized with 0.05 parts of neopentanetetrayl tetrakis(3,5-di-tert-butyl-4-hydroxyhydrocinnamate), 0.10 parts of tris(2,4-di-tert-butylohenyl) phosphite and 0.05 parts of calcium stearate is dry blended without a biocide; or with 0.25 parts or with 0.50 parts of 2,4,4′-trichloro-2′-hydroxydiphenyl ether (IRGASAN® or IRGAGUARD®, Ciba Specialty Chemicals Corp.) either as a neat powder or as a concentrate as prepared in Example 1. The parts of components are by weight.
The extruded pellets are compression molded into 125 mil plaques (2″×2″, 5.08 cm×5.08 cm) at 450° F. (232° C.) for nine minutes (three minutes at low pressure; three minutes at high pressure; three minutes cooling). Yellowness index (YI) values are determined on the plaques according to ASTM D1925 on a DCI SF600 spectrophotometer. An increase in yellowness corresponds to a positive increase in the YI value.

For `Oc1cc(Cl)ccc1Oc1ccc(Cl)cc1Cl` [Powder, 2,4,4′-trichloro-2′-hydroxydiphenyl ether], the “Yellowness Index (YI) after multiple pass extrusion at 500° F. (260° C.) First” value (biocide 0.25% by wt) was 8.4, the “Yellowness Index (YI) after multiple pass extrusion at 550° F. (288° C.) First” value (biocide 0.25% by wt) was 6.4 and the “Yellowness Index (YI) after multiple pass extrusion at 500° F. (260° C.) Second” value (biocide 0.25% by wt) was 8.8. For the same molecule, the “Yellowness Index (YI) after multiple pass extrusion at 550° F. (288° C.) Second” value (biocide 0.25% by wt) was 6.3, the “Yellowness Index (YI) after multiple pass extrusion at 500° F. (260° C.) Third” value (biocide 0.25% by wt) was 9.7 and the “Yellowness Index (YI) after multiple pass extrusion at 550° F. (288° C.) Third” value (biocide 0.25% by wt) was 6.6. The “Yellowness Index (YI) after multiple pass extrusion at 500° F. (260° C.) First” value (biocide 0.50% by wt) was 8.8, the “Yellowness Index (YI) after multiple pass extrusion at 550° F. (288° C.) First” value (biocide 0.50% by wt) was 7.1 and the “Yellowness Index (YI) after multiple pass extrusion at 500° F. (260° C.) Second” value (biocide 0.50% by wt) was 9.7. For the same molecule, the “Yellowness Index (YI) after multiple pass extrusion at 550° F. (288° C.) Second” value (biocide 0.50% by wt) was 7.2, the “Yellowness Index (YI) after multiple pass extrusion at 500° F. (260° C.) Third” value (biocide 0.50% by wt) was 9.2 and the “Yellowness Index (YI) after multiple pass extrusion at 550° F. (288° C.) Third” value (biocide 0.50% by wt) was 7.4.
